Assay results reported in patent US4687840A, “Hypotensive active peptides” (Texas Tech University Health Sciences Center, priority 1986, dated 1987).

System: rat tail artery helical strip
Conditions: strips contracted with arginine vasopressin, dose of 100 mg/ml
Method: Male and female Sprague-Dawley rats were anesthetized with pentobarbital (50 mg/kg) before removal of the tail artery. Upon isolation the artery was placed in ice cold Krebs-Hensleit solution (KHS) which was oxygenated with 95% O2, 5% CO2. The vessels were cut helically and strips of approximately 1.5 cm were secured in a Sawyer-Bartleston chamber containing KHS. The development of force of the helical strips was measured with a Grass FT.03 force displacement transducer and recorded on a Grass Model 79D polygraph. Isolated tail artery helical strips were equilibrated for one hour prior to addition of any peptide. In all cases, the strips were first contracted by adding arginine vasopressin (AVP), to the bath. The peptide being studied was then added to the bath and the degree of relaxation was determined.

N=C(N)NCCC[C@@H](N)C(=O)O [D Arg, D-arginine]
Tension change: 0 gm
